From US5925528A, “Murine cell lines which over produce acidic fibroblast growth factor (aFGF) and method of using same” (Ohio State University Research Foundation, priority 1997, dated 1999)
“Also recorded” adds a separate entry of the source.

Columns and labels:
[1] = system: sense transfectants (Tr31-5-1, Tr33-1-2, Tr34-4-1 and Tr34-1-1); experiment: Mitogenic response ([3H]thymidine) of sense transfectants compared with parental NIH/3T3 cells; assay type: cell-based, mouse
Procedure: (§1) FIG. 12 is a graph showing the mitogenic effects of different growth factors to various transfected cell lines. Cells were grown to confluence, changed to Dulbecco's modified Eagle medium containing 0.5% calf serum and grown for two more days. Different growth factors or calf serum was then added to the medium to stimulate cells to grow. [^3 H]thymidine was added 18 hours after addition of the mitogens and cells were incubated for another 6 hours. Bovine aFGF (b-aFGF) represents the truncated forms while human aFGF purified from Tr31-5-1 (rh-aFGF) represents the full-length protein. Cell lines, Tr31-5-1, 33-1-2, 34-1-1, and 34-4-1 are NIH/3T3 derivatives containing the aFGF cDNA construct in the positive orientation; whereas Tr31-11-1 contains aFGF cDNA in the anti-sense orientation.
(§2) Cells transfected with the EDNA coding for the full-length human aFGF were compared with the parental NIH/3T3 cells by determining their responses to various mitogens. […] Therefore, the lack of mitogenic response of Tr31-5-1 and Tr33-1-2 to rh-aFGF is not likely due to the trivial explanation of a defective mitogen. Thus, Tr31-5-1 and Tr33-1-2 may have lost some component of the pathway and these cell lines provide a unique means for elucidating the components responsive to the full-length aFGF.

Tr31-5-1 cells = experiment: Mitogenic response ([3H]thymidine) of Tr31-5-1 cells; assay type: cell-based, mouse; settings: listed as full-length aFGF
Procedure: as §1, §2

Swiss/3T3 cells = experiment: Mitogenic response ([3H]thymidine) of Swiss/3T3 cells; assay type: cell-based
newt KGFR [2] = experiment: Binding assay (Scatchard plot) using KPTr2-2 cells and 125I-aFGF; design: species or system newt (Notophthalamus viridescens); settings: KPTr2-2 cells, read-out: Kd of newt KGFR toward human aFGF
Excerpt: (§3) Binding assays using KPTr2-2 and ^125 I-aFGF have been carried out. […] The Kd is slightly higher than the typical sub-nM range of mammalian KGFR. However, this may reflect the species difference since we used a human ligand for the newt receptor.

Tr33-1-2 cells = experiment: Mitogenic response ([3H]thymidine) of Tr33-1-2 cells; assay type: cell-based, mouse; settings: listed as full-length aFGF
Procedure: as §1, §2

NIH/3T3 cells = experiment: Mitogenic response ([3H]thymidine) of NIH/3T3 cells; assay type: cell-based, mouse
Procedure: as §1, §2

newt KGFR [3] = experiment: Competition assay using KPTr2-2 and 125I-aFGF; assay type: binding, newt (Notophthalamus viridescens); settings: KPTr2-2 cells, compared with aFGF
Excerpt: as §3

newt KGFR [4] = experiment: Crosslinking of 125I-aFGF to CHO-K1 cells over-expressing newt KGFR (KPTr2-2), competition with excess cold ligand; assay type: binding, newt (Notophthalamus viridescens); settings: 500-fold molar excess of cold ligand, KPTr2-2 cells
Procedure: CHO cells transfected with pBJ5 vector (lane 1) or with newt KGFR expression vector (lanes 2-4) were crosslinked with ^125 I-aFGF using 0.3 mM disuccinimidyl suberate (DSS). Excess amounts (500-fold) of aFGF (lane 3) or KGF (lane 4) were used to compete with ^125 I-aFGF. Crosslinked products were analyzed on a 7.5% SDS-polyacrylamide gel.
To characterize the newt FGFR EDNA functionally, the newt KGFR were expressed in CHO-K1 cells. The mammalian expression vector, pBJ5, which contains a chimeric promoter derived from HTLV-I and SV40, was used to express the newt KGFR and FGFR2 cDNA. […] The crosslinked product is absent in KPTr1-8, the CHO cells that were transfected with the pBJ5 vector alone. The crosslinked product thus appears to be specific. Similarly, a cell line over-expressing the human KGFR (T-1063-29-2 from S. A. Aaronson, NIH) was able to produce a somewhat smaller crosslinked product than the newt KGFR. Antibodies (both monoclonal and polyclonal) directed against a peptide from the carboxyl terminus of the newt FGFR2 are generated.

## PDGF [reference compound]
[1]; sense transfectants Tr31-5-1, Tr33-1-2, Tr34-4-1 and Tr34-1-1
  mitogenic response relative to parental NIH/3T3 cells: stronger mitogenic responses than NIH/3T3 cells

## human aFGF: human aFGF purified from Tr31-5-1 (rh-aFGF) represents the full-length protein
Tr31-5-1 cells
  mitogenic response: failed to give any mitogenic responses; also recorded: do not respond
Swiss/3T3 cells
  mitogenic response: responded to the mitogenic stimulation
Newt KGFR [2]
  Kd: 1.3 nM
[1]; sense transfectants with the exception of Tr33-1-2
  mitogenic response relative to parental NIH/3T3 cells: respond less strongly than the parental NIH/3T3 cells
Tr33-1-2 cells
  mitogenic response: failed to give any mitogenic responses; also recorded: do not respond
NIH/3T3 cells
  mitogenic response: responded to the mitogenic stimulation

## human recombinant bFGF: human recombinant basic fibroblast growth factor
Newt KGFR [3]
  competition with 125I-aFGF: does not compete as well as aFGF

B1: human recombinant KGF: human recombinant keratinocyte growth factor (protein, UniProt P21781 32-194, looked up)
Fibroblast growth factor 7: CNDMTPEQMATNVNCSSPERHTRSYDYMEGGDIRVRRLFCRTQWYLRIDKRGKVKGTQEMKNNYNIMEIRTVAVGIVAIKGVESEFYLAMNKEGKLYAKKECNEDCNFKELILENHYNTYASAKWTHNGGEMFVALNQKGIPVRGKKTKKEQKTAHFLPMAIT
Newt KGFR [4]
  competition of the 150 kDa crosslinked product: successfully competed off
